From patent US20260240203A1, “COMPOSITIONS CONTAINING GAMMA-AMINOBUTYRIC ACID AND METHODS FOR IMPROVING COGNITIVE FUNCTIONS, MOOD, AND ALERTNESS” (THE COCA-COLA COMPANY, priority 2023, published 2026) come the findings set out here.

Experiment [1] relates to healthy adults. The conditions noted are these: vs placebo; compositive level; single beverage dose.
The test system of experiment [2] is healthy adults. Conditions: p-value vs placebo; compositive level; single beverage dose; b330.

`Cn1c(=O)c2c(ncn2C)n(C)c1=O` [Caffeine, caffeine]: in the experiment on healthy adults [1], the accuracy of performance result was “numerically trends to improve the accuracy of performance, although no significance observed”. Moreover, in the experiment on healthy adults [2], the “improve the speed of performance significantly comparing to placebo (p), as printed in the attention paragraph” value is 0.002.
